Test results from ChEMBL document CHEMBL5154871, “Non-peptidyl non-covalent cathepsin C inhibitoEEr bearing a unique thiophene-substituted pyridine: Design, structure-activity relationship and anti-inflammatory activity in vivo” (Eur J Med Chem, 2022).

Columns and labels:
[1] = biological target: T1, Dipeptidyl peptidase 1 (Homo sapiens, UniProt P53634); assay: Inhibition of Cathepsin C in human THP-1 cells using H-Gly-Phe-AFC as substrate pretreated for 1 hr followed by substrate addition and incubated for 60 mins by microplate reader assay; format: cell-based
T1 sequence (P53634 25-134 limits assumed): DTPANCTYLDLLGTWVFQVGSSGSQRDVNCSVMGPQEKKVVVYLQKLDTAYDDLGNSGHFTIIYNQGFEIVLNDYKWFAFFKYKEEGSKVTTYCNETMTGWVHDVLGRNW
T1 sequence (P53634 231-394 limits assumed): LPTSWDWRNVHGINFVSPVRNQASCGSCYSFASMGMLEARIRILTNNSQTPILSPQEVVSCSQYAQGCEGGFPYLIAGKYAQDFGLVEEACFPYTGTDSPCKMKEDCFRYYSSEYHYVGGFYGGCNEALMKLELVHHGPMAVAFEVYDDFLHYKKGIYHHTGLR
T1 sequence (P53634 395-463 limits assumed): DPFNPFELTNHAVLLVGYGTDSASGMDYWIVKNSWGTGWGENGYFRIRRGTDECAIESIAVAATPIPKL

[2] = biological target: T1, Dipeptidyl peptidase 1; assay: Inhibition of Cathepsin C in human U-937 cells using H-Gly-Phe-AFC as substrate pretreated for 1 hr followed by substrate addition and incubated for 60 mins by microplate reader assay; format: cell-based
[3] = biological target: T1, Dipeptidyl peptidase 1; assay: Inhibition of human recombinant Cathepsin C using H-Gly-Arg-AMC as substrate pretreated for 30 mins followed by substrate addition and incubated for 60 mins by microplate reader assay
[4] = biological target: Cathepsin B (Homo sapiens, UniProt P07858); assay: Inhibition of human recombinant Cathepsin B using Z-Leu-Arg-AMC as substrate pretreated for 60 mins followed by substrate addition and incubated for 30 mins by microplate reader assay

An IC50 [1] of over 5000 nM, an IC50 [2] of over 5000 nM and an IC50 [3] of over 5000 nM were found for `Nc1ccc(-c2cnc(Nc3ccc(-c4ccsc4)cn3)nc2Nc2cccc(C(F)(F)F)c2)cc1` in this work.
An IC50 [1] of over 5000 nM, an IC50 [2] of over 5000 nM and an IC50 [3] of over 5000 nM were found for `FC(F)(F)c1cccc(Nc2nc(Nc3ncc(-c4ccsc4)cn3)ncc2Cl)c1` in this work.
An IC50 [1] of over 5000 nM, an IC50 [2] of over 5000 nM and an IC50 [3] of over 5000 nM were found for `CS(=O)(=O)c1ccc(-c2cnc(Nc3ccc(-c4ccsc4)cn3)nc2Nc2cccc(C(F)(F)F)c2)cc1` in this work.
An IC50 [1] of over 5000 nM, an IC50 [2] of over 5000 nM and an IC50 [3] of over 5000 nM were found for `FC(F)(F)c1cccc(Nc2nc(Nc3ccc(-c4ccsc4)cn3)ncc2-c2ccoc2)c1` in this work.
An IC50 [1] of 63.9 nM, an IC50 [2] of 99.9 nM and an IC50 [3] of 76.4 nM were found for `CC(=O)Nc1ccc(Nc2nc(Nc3ccc(-c4ccsc4)cn3)ncc2Cl)cc1` in this work.
An IC50 [1] of 203 nM, an IC50 [2] of 178 nM and an IC50 [3] of 65.6 nM were found for `FC(F)(F)c1cccc(Nc2nc(Nc3cccc(-c4ccsc4)c3)ncc2Cl)c1` in this work. The IC50 [4] was over 5000 nM.
An IC50 [1] of 156 nM, an IC50 [2] of 127 nM and an IC50 [3] of 132 nM were found for `Nc1cccc(Nc2nc(Nc3ccc(-c4ccsc4)cn3)ncc2Cl)c1` in this work.
An IC50 [1] of over 3000 nM, an IC50 [2] of 416 nM and an IC50 [3] of 248 nM were found for `Cn1cc(-c2cnc(Nc3ccc(-c4ccsc4)cn3)nc2Nc2cccc(C(F)(F)F)c2)cn1` in this work.
An IC50 [1] of over 5000 nM, an IC50 [2] of over 5000 nM and an IC50 [3] of over 5000 nM were found for `FC(F)(F)c1cccc(Nc2nc(Nc3ccc(-c4ccsc4)cn3)ncc2-c2cccc(Cl)c2)c1` in this work.
An IC50 [1] of over 5000 nM, an IC50 [2] of over 5000 nM and an IC50 [3] of over 5000 nM were found for `CC(=O)Nc1cccc(-c2cnc(Nc3ccc(-c4ccsc4)cn3)nc2Nc2cccc(C(F)(F)F)c2)c1` in this work.
An IC50 [1] of 170 nM, an IC50 [2] of 200 nM and an IC50 [3] of 142 nM were found for `Fc1ccc(Nc2nc(Nc3ccc(-c4ccsc4)cn3)ncc2Cl)cc1C(F)(F)F` in this work.
An IC50 [1] of 160 nM, an IC50 [2] of 216 nM and an IC50 [3] of 103 nM were found for `FC(F)(F)c1cccc(Nc2nc(Nc3ccc(-c4ccsc4)nc3)ncc2Cl)c1` in this work.
An IC50 [1] of 203 nM, an IC50 [2] of 180 nM and an IC50 [3] of 98.6 nM were found for `FC(F)(F)c1cccc(Nc2nc(Nc3ccc(-c4ccsc4)cn3)ncc2Br)c1` in this work.
An IC50 [1] of over 5000 nM, an IC50 [2] of over 5000 nM and an IC50 [3] of over 5000 nM were found for `NC(=O)c1cccc(-c2cnc(Nc3ccc(-c4ccsc4)cn3)nc2Nc2cccc(C(F)(F)F)c2)c1` in this work.
An IC50 [1] of over 5000 nM, an IC50 [2] of over 5000 nM and an IC50 [3] of over 5000 nM were found for `FC(F)(F)c1cccc(Nc2nc(Nc3ccc(-c4ccsc4)cn3)ncc2-c2ccncc2)c1` in this work.
An IC50 [1] of 357 nM, an IC50 [2] of 285 nM and an IC50 [3] of 133 nM were found for `NC(=O)c1ccc(-c2cnc(Nc3ccc(-c4ccsc4)cn3)nc2Nc2cccc(C(F)(F)F)c2)cc1` in this work.
An IC50 [1] of 110 nM, an IC50 [2] of 154 nM and an IC50 [3] of 92.4 nM were found for `FC(F)(F)Oc1ccc(Nc2nc(Nc3ccc(-c4ccsc4)cn3)ncc2Cl)cc1` in this work.
An IC50 [1] of over 5000 nM, an IC50 [2] of over 5000 nM and an IC50 [3] of over 5000 nM were found for `CN1CCN(c2ccc(-c3cnc(Nc4ccc(-c5ccsc5)cn4)nc3Nc3cccc(C(F)(F)F)c3)cc2)CC1` in this work.
An IC50 [1] of 288 nM, an IC50 [2] of 356 nM and an IC50 [3] of 216 nM were found for `FC(F)(F)c1cccc(Nc2nc(Nc3ccc(-c4ccsc4)cn3)ncc2-c2ccc(Cl)cc2)c1` in this work.
An IC50 [1] of 141 nM, an IC50 [2] of 155 nM and an IC50 [3] of 102 nM were found for `Clc1cnc(Nc2ccc(-c3ccsc3)cn2)nc1Nc1ccccn1` in this work.
An IC50 [1] of 120 nM, an IC50 [2] of 169 nM and an IC50 [3] of 91.5 nM were found for `Clc1cnc(Nc2ccc(-c3ccsc3)cn2)nc1NC1CCNCC1` in this work.
An IC50 [1] of 180 nM, an IC50 [2] of 246 nM and an IC50 [3] of 252 nM were found for `FC(F)(F)Oc1cccc(Nc2nc(Nc3ccc(-c4ccsc4)cn3)ncc2Cl)c1` in this work.
An IC50 [1] of 197 nM, an IC50 [2] of 276 nM and an IC50 [3] of 152 nM were found for `O=[N+]([O-])c1cc(-c2ccsc2)cnc1Nc1ncc(Cl)c(Nc2cccc(C(F)(F)F)c2)n1` in this work.
An IC50 [1] of 102 nM, an IC50 [2] of 86.5 nM and an IC50 [3] of 61.8 nM were found for `CC(=O)Nc1ccc(-c2cnc(Nc3ccc(-c4ccsc4)cn3)nc2Nc2cccc(C(F)(F)F)c2)cc1` in this work.
An IC50 [1] of over 5000 nM, an IC50 [2] of over 5000 nM and an IC50 [3] of over 5000 nM were found for `CN1CC=C(c2cnc(Nc3ccc(-c4ccsc4)cn3)nc2Nc2cccc(C(F)(F)F)c2)CC1` in this work.
An IC50 [1] of 308 nM, an IC50 [2] of 228 nM and an IC50 [3] of 156 nM were found for `CC(=O)c1cccc(-c2cnc(Nc3ccc(-c4ccsc4)cn3)nc2Nc2cccc(C(F)(F)F)c2)c1` in this work.
An IC50 [1] of over 5000 nM, an IC50 [2] of over 5000 nM and an IC50 [3] of over 5000 nM were found for `FC(F)(F)c1cccc(Nc2nc(Nc3ccc(-c4ccsc4)cn3)ncc2-c2ccccc2)c1` in this work.
An IC50 [1] of 105 nM, an IC50 [2] of 134 nM and an IC50 [3] of 128 nM were found for `Fc1ccc(Nc2nc(Nc3ccc(-c4ccsc4)cn3)ncc2Cl)cc1` in this work.
An IC50 [1] of 111 nM, an IC50 [2] of 89.5 nM and an IC50 [3] of 57 nM were found for `Nc1ccc(Nc2nc(Nc3ccc(-c4ccsc4)cn3)ncc2Cl)cc1` in this work. The IC50 [4] was over 5000 nM.
An IC50 [1] of over 5000 nM, an IC50 [2] of over 5000 nM and an IC50 [3] of over 5000 nM were found for `FC(F)(F)c1cccc(Nc2nc(Nc3ccc(-c4ccco4)cn3)ncc2Cl)c1` in this work.
An IC50 [1] of 89.8 nM, an IC50 [2] of 92.2 nM and an IC50 [3] of 69.4 nM were found for `FC(F)(F)c1ccc(CNc2nc(Nc3ccc(-c4ccsc4)cn3)ncc2Cl)cc1` in this work.
An IC50 [1] of 129 nM, an IC50 [2] of 396 nM and an IC50 [3] of 128 nM were found for `FC(F)(F)c1cccc(Nc2nc(Nc3ccc(-c4cccs4)cn3)ncc2Cl)c1` in this work.
An IC50 [1] of 184 nM, an IC50 [2] of 150 nM and an IC50 [3] of 105 nM were found for `FC(F)(F)c1ccc(Nc2nc(Nc3ccc(-c4ccsc4)cn3)ncc2Cl)cc1` in this work.
An IC50 [1] of over 5000 nM, an IC50 [2] of over 5000 nM and an IC50 [3] of over 5000 nM were found for `CN1CCN(Cc2ccc(-c3cnc(Nc4ccc(-c5ccsc5)cn4)nc3Nc3cccc(C(F)(F)F)c3)cc2)CC1` in this work.
An IC50 [1] of 89.5 nM, an IC50 [2] of 181 nM and an IC50 [3] of 90.6 nM were found for `FC(F)(F)c1cccc(Nc2nc(Nc3ccc(-c4ccsc4)nn3)ncc2Cl)c1` in this work.
An IC50 [1] of over 5000 nM, an IC50 [2] of over 5000 nM and an IC50 [3] of over 5000 nM were found for `FC(F)(F)c1cccc(Nc2nc(Nc3cnc(-c4ccsc4)cn3)ncc2Cl)c1` in this work.
An IC50 [1] of over 5000 nM, an IC50 [2] of over 5000 nM and an IC50 [3] of over 5000 nM were found for `FC(F)(F)c1cccc(Nc2nc(Nc3ccc(-c4ccsc4)cc3)ncc2Cl)c1` in this work.
An IC50 [1] of 159 nM, an IC50 [2] of 174 nM and an IC50 [3] of 99.8 nM were found for `Fc1ccc(Nc2nc(Nc3ccc(-c4ccsc4)cn3)ncc2Cl)cc1F` in this work.
An IC50 [1] of 260 nM, an IC50 [2] of 155 nM and an IC50 [3] of 77.9 nM were found for `FC(F)(F)c1cccc(Nc2nc(Nc3cc(-c4ccsc4)ccn3)ncc2Cl)c1` in this work.
